Source: US9814739B2, “2′-ethynyl nucleoside derivatives for treatment of viral infections” (priority 2012, dated 2017)
pEC50: −log10 of the molar value. Like-named read-outs stand apart in the source and are kept apart here.

Columns and labels:
[1] = test system: GT1b HCV luciferase replicon; assay: HCV replicon antiviral EC50 assay; format: cell-based, Hepatitis C virus; details: for pEC50: read-out: HCV GT1b EC50; for EC50: Hepatitis C virus, GT1B, 72 h, read-out: HCV GT1b EC50 (uM)
[2] = test system: Replicon cells, expressing the GT1b HCV luciferase replicon
[3] = 4 day CCK-8 cytotoxicity assay using THP-1 cells; format: cell-based; details: human, read-out: Dengue CC50 (THP-1)
Protocol: 3) Protocols for Automated 4 Days CCK8 (Dojindo) Cytotoxicity Assay in HepG2 and THP-1 Cells • 1. 25 μL of HepG2 suspension containing 1.6×10^4 cells/ml (400 cells/well) or 25 μL of THP-1 suspension containing 8×10^4 cells/ml (2000 cells/well) was dispensed into a clear 384-well plate by GNF dispenser 2B vertical-head. • 2. The plate was pre-incubated for 24 h in the GNF incubator (humidified, 37° C., 5% CO2). • 3. Serial-diluted compound were directly transferred into the culture media in the plate (200× dilution). • 4. Plates were incubated for 96 hours in the GNF incubator. • 5. CCK-8 was thawed on the bench-top, and was pre-diluted with media (2.5× dilutions). • 6. 35 μL of 2.5× diluted CCK8 was added to each well of the plate by GNF dispenser 1C angled-head. • 7. The plates were incubated for 3 hours in the incubator. • 8. The absorbance at 450 nm was measured by Envision. Dengue Assay on Cryopreserved PBMC Cells
THP-1 cells grown in suspension were counted and diluted to 8×10^4 cells/ml in RPMI-1640 media supplemented with 10% fetal bovine serum and 1% penicillin/streptomycin. 25 ul of the THP-1 containing media consisting of 2000 cells were dispensed in 384-well tissue culture plate and pre-incubated at room temperature for 30 minutes, followed by 37° C., 5% CO2 overnight in the humidified incubator. On the next day, serial-diluted compound plates were prepared and 125 nl of compounds at various concentrations were then dispensed into the tissue culture well (200× dilution). The plates were then transferred to 37° C., 5% CO2 humidified incubator for additional 96 hours. Cytotoxicity was measured by CCK-8 assay. Briefly, CCK-8 was thawed on bench top and diluted 2.5× with the growth media. 35 ul of the pre-diluted CCK-8 was then introduced into each well and the plates were then further incubated in 37° C., 5% CO2 humidified incubator for 3 hours. The absorbance was read by Envision at 450 nm. Dose response curves were plotted from the mean absorbance (n=2) versus the log of the concentration of test compounds. The EC50 is calculated by nonlinear regression analysis. A positive control (puromycin) was used to ensure the quality of the data.

Dengue virus = assay: Dengue assay on cryopreserved PBMC cells (plaque reduction readout on BHK cells); format: cell-based; details: Dengue virus, PBMC, 48 h, human PBMC cells
Protocol: Cryopreserved human PBMC cells were purchased from approved vendors. It was then thawed according to manufacturer's instructions and suspended in RPMI medium supplemented with 1% penicillin/streptomycin solution and 10% Fetal Calf serum. The cells were then counted and viability checked (viability should be at least 70%). After centrifuging and removing the media, the cells were diluted to 1×10^7 cells/mL in RPMI medium supplemented with 1% penicillin/streptomycin. 50 μl of the cells were then dispensed into 96-well tissue culture plate constituting 5×10^5 cells/well. Next, virus with humanized 4G2 mixture was prepared for infection. Briefly, virus (2×10^7 pfu/ml) was mixed with humanized 4G2 antibody with the final antibody concentration of 0.38 μg/ml and incubated for 30 minutes at 4° C. to assist virus/antibody complex formation. The virus-antibody complex was then added to the PBMC at multiplicity of infection (M.O.I) of 0.5. The resulting media was then and further incubated the plates at 37° C. in the humidified incubator for infection to take place. Serial diluted compounds were then added and finally media was added such that the final media volume was 200 μl with 2% Fetal Calf Serum. The plates were then incubated at 37° C., 5% CO2 for another 48 hours. The extent of the infection and compound inhibition was measured by plaque reduction assay using BHK cells. Briefly, BHK cells grown in 24-well tissue culture were subjected to supernatants derived from infection containing serial diluted compounds. After additional 4 days, the monolayer of BHK cells were fixed, stained with crystal violet stain and plaques counted. Dose response curves were plotted from the mean absorbance (n=3) versus the log of the concentration of test compounds. The EC50 is calculated by nonlinear regression analysis. A positive control (7-deaza-2′-C-acetylene-adenosine) was used to ensure the quality of the data.

in vitro = details: HCV GT1b CC50 (uM)

| Structure (SMILES) | pEC50 [1] | CC50 [2] | CC50 at 96 h [3] | EC50 [1] | pEC50 (Dengue virus) | CC50 (in vitro) |
| --- | --- | --- | --- | --- | --- | --- |
| C#C[C@@]1(O)[C@H](O)[C@@H](COP(=O)(NC(C)(C)C(=O)OCC)Oc2ccccc2)O[C@H]1n1ccc(=O)[nH]c1=O (single isomer, unassigned) [1.37 (peak 1)] | 6.44 | > 25000 nM | – | – | – | – |
| C#C[C@@]1(O)[C@H](O)[C@@H](COP(=O)(N[C@@H](C)C(=O)O[C@@H](C)CC)Oc2ccccc2)O[C@H]1n1ccc(=O)[nH]c1=O (single isomer, unassigned) [1.13 (peak 1)] | 6.52 | > 25000 nM | – | – | – | – |
| C#C[C@@]1(O)[C@H](O)[C@@H](COP(=O)(N[C@@H](C)C(=O)OC2CCCCC2)Oc2ccc(Cl)cc2)O[C@H]1n1ccc(=O)[nH]c1=O (stereo partly drawn) [Example 1.7, (2S)-cyclohexyl 2-(((4-chlorophenoxy)(((2R,3R,4R,5R)-5-(2,4-dioxo-3,4-dihydropyrimidin-1(2H)-yl)-4-ethynyl-3,4-dihydroxytetrahydrofuran-2-yl)methoxy)phosphoryl)amino)propanoate] | – | – | 13000 nM | 0.087 µM | 6.77 | > 25 µM |
| C#C[C@@]1(O)[C@H](O)[C@@H](COP(=O)(N[C@@H](C)C(=O)OC2CCOCC2)Oc2ccccc2)O[C@H]1n1ccc(=O)[nH]c1=O (single isomer, unassigned) [1.14 (peak 1)] | 5.94 | > 25000 nM | – | – | – | – |
| C#C[C@@]1(O)[C@H](O)[C@@H](COP(=O)(NCC(=O)OC(C)C)Oc2ccc(Cl)cc2)O[C@H]1n1ccc(=O)[nH]c1=O (stereo partly drawn) [Example 1.6, isopropyl 2-(((4-chlorophenoxy)(((2R,3R,4R,5R)-5-(2,4-dioxo-3,4-dihydropyrimidin-1(2H)-yl)-4-ethynyl-3,4-dihydroxytetrahydrofuran-2-yl)methoxy)phosphoryl)amino)acetate] | – | – | > 50000 nM | 0.152 µM | 6.77 | > 25 µM |
| C#C[C@@]1(O)[C@H](O)[C@@H](COP(=O)(N[C@@H](C)C(=O)OCC(C)(C)C)Oc2ccccc2)O[C@H]1n1ccc(=O)[nH]c1=O (single isomer, unassigned) [1.33 (peak 1)] | 7.09 | 19700 nM | – | – | – | – |
| CC#C[C@@]1(O)[C@H](O)[C@@H](COP(=O)(N[C@@H](C)C(=O)OC(C)C)Oc2ccccc2)O[C@H]1n1ccc(=O)[nH]c1=O (stereo partly drawn) [Example 1.1, (2S)-isopropyl 2-(((((2R,3R,4R,5R)-5-(2,4-dioxo-3,4-dihydropyrimidin-1(2H)-yl)-3,4-dihydroxy-4-(prop-1-yn-1-yl)tetrahydrofuran-2-yl)methoxy)(phenoxy)phosphoryl)amino)propanoate] | – | – | 48000 nM | 0.243 µM | 6.01 | > 25 µM |
| C#C[C@@]1(O)[C@H](O)[C@@H](COP(=O)(N[C@@H](CC(C)C)C(=O)OC(C)C)Oc2ccccc2)O[C@H]1n1ccc(=O)[nH]c1=O (single isomer, unassigned) [1.23 (peak 1)] | 5.57 | > 25000 nM | – | – | – | – |
| C#C[C@@]1(O)[C@H](O)[C@@H](COP(=O)(N[C@@H](C)C(=O)OC(C)C)Oc2ccccc2)O[C@H]1n1ccc(N)nc1=O (single isomer, unassigned) [1.30 (peak 1)] | 4.35 | > 25000 nM | – | – | – | – |
| C#C[C@@]1(O)[C@H](O)[C@@H](COP(=O)(N[C@@H](CCC)C(=O)OC(C)C)Oc2ccccc2)O[C@H]1n1ccc(=O)[nH]c1=O (single isomer, unassigned) [1.24 (peak 1)] | 6.05 | > 25000 nM | – | – | – | – |
| C#C[C@@]1(O)[C@H](O)[C@@H](COP(=O)(N[C@@H](C)C(=O)OCc2ccccc2)Oc2ccc(Cl)cc2)O[C@H]1n1ccc(=O)[nH]c1=O (stereo partly drawn) [Example 1.5, (2S)-benzyl 2-(((4-chlorophenoxy)(((2R,3R,4R,5R)-5-(2,4-dioxo-3,4-dihydropyrimidin-1(2H)-yl)-4-ethynyl-3,4-dihydroxytetrahydrofuran-2-yl)methoxy)phosphoryl)amino)propanoate] | – | – | 8300 nM | 0.131 µM | 7.22 | > 25 µM |
| C#C[C@@]1(O)[C@H](O)[C@@H](COP(=O)(N[C@@H](C)C(=O)OC(CC)CC)Oc2ccc(Cl)cc2)O[C@H]1n1ccc(=O)[nH]c1=O (stereo partly drawn) [Example 1.4, (2S)-pentan-3-yl 2-(((4-chlorophenoxy)(((2R,3R,4R,5R)-5-(2,4-dioxo-3,4-dihydropyrimidin-1(2H)-yl)-4-ethynyl-3,4-dihydroxytetrahydrofuran-2-yl)methoxy)phosphoryl)amino)propanoate] | – | – | > 50000 nM | 0.087 µM | 7.22 | > 25 µM |
| C#C[C@@]1(O)[C@H](O)[C@@H](COP(=O)(N[C@@H](Cc2ccccc2)C(=O)OC(C)C)Oc2ccccc2)O[C@H]1n1ccc(=O)[nH]c1=O (single isomer, unassigned) [1.10 (peak 1)] | 5.54 | > 25000 nM | – | – | – | – |
| C#C[C@@]1(O)[C@H](O)[C@@H](COP(=O)(N[C@@H](C)C(=O)OC2CCCC2)Oc2ccccc2)O[C@H]1n1ccc(=O)[nH]c1=O (single isomer, unassigned) [1.31 (peak 1)] | 7.62 | > 25000 nM | – | – | – | – |
| C#C[C@@]1(O)[C@H](O)[C@@H](COP(=O)(N[C@@H](C)C(=O)OC(CCC)CCC)Oc2ccccc2)O[C@H]1n1ccc(=O)[nH]c1=O (single isomer, unassigned) [1.34 (peak 1)] | 6.52 | > 25000 nM | – | – | – | – |
| C#C[C@@]1(O)[C@H](O)[C@@H](COP(=O)(N[C@@H](C)C(=O)O[C@H](C)CC)Oc2ccc(Cl)cc2)O[C@H]1n1ccc(=O)[nH]c1=O (stereo partly drawn) [Example 1.3, (2S)-(R)-sec-butyl 2-(((4-chlorophenoxy)(((2R,3R,4R,5R)-5-(2,4-dioxo-3,4-dihydropyrimidin-1(2H)-yl)-4-ethynyl-3,4-dihydroxytetrahydrofuran-2-yl)methoxy)phosphoryl)amino)propanoate] | – | – | 16000 nM | 0.095 µM | 7.22 | > 25 µM |
| C#C[C@@]1(O)[C@H](O)[C@@H](COP(=O)(N[C@@H](C)C(=O)OC2CCC2)Oc2ccccc2)O[C@H]1n1ccc(=O)[nH]c1=O (single isomer, unassigned) [1.11 (peak 1)] | 7.00 | > 25000 nM | – | – | – | – |
| C#C[C@@]1(O)[C@H](O)[C@@H](COP(=O)(N[C@@H](C)C(=O)OC(CC)CC)Oc2ccccc2)O[C@H]1n1ccc(=O)[nH]c1=O (single isomer, unassigned) [1.16 (peak 1)] | 6.47 | > 25000 nM | – | – | – | – |
| C#C[C@@]1(O)[C@H](O)[C@@H](COP(=O)(NCCOC(=O)c2ccccc2)Oc2ccccc2)O[C@H]1n1ccc(=O)[nH]c1=O (single isomer, unassigned) [1.18 (peak 1)] | 7.10 | > 25000 nM | – | – | – | – |
| C#C[C@@]1(O)[C@H](O)[C@@H](COP(=O)(N[C@@H](C)C(=O)OCC)Oc2ccccc2)O[C@H]1n1ccc(=O)[nH]c1=O (single isomer, unassigned) [1.36 (peak 1)] | 6.99 | > 25000 nM | – | – | – | – |
| C#C[C@@]1(O)[C@H](O)[C@@H](COP(=O)(N[C@@H](C)C(=O)OC)Oc2ccccc2)O[C@H]1n1ccc(=O)[nH]c1=O (single isomer, unassigned) [1.35 (peak 1)] | 6.53 | > 25000 nM | – | – | – | – |
